Assays:
[1] = system: B-16 melanoma cells; assay: In vitro B16 melanoma cell proliferation; format: cell-based; settings: rank order
Experimental: These studies were conducted according to standard procedures as described in Donoso and Himes, Cancer Biochem. Biophysics, vol. 7, (1984), p. 133.

[2] = in words; cited from earlier work
[3] = system: human mammary carcinoma MX-1 xenograft; assay: Subrenal capsule human mammary carcinoma MX-1 xenograft in mice; settings: for ANML BODY WT DIFF (test minus control) / TEST BODY WT CHG / # OF ANMLS ALIVE CALC/TOTAL / Average tumor WEIGHT CHANGE (DELTA) / Average tumor weight, FINAL: Q4D; for ANML BODY WT DIFF (test minus control) / TEST BODY WT CHG: Day 1 to 11; for # OF ANMLS ALIVE CALC/TOTAL / Average tumor WEIGHT CHANGE (DELTA) / Average tumor weight, FINAL / % T/C: Day 11; for % T/C: Q4D Days 1, 5, 9
Description: The procedures followed are those described at pages 23-24 of NIH Publication No. 84-2635, In Vivo Cancer Model (February 1984).
In the procedure, test groups of mice (6 mice per test group) and control groups of 12 mice per group are utilized. A tumor fragment (human mammary carcinoma MX-1 xenograft), is implanted under the membranous covering of the kidney of each mouse.
Day 0: Anesthetize animals. Record body weight (Weigh Day 1). Implant tumor, measure and record. Randomize animals after they recover from the anesthetic. Run bacterial cultures. Determine solubilities of test agent. Record deaths daily.
Day 1: Check cultures. Discard experiment if contaminated. Prepare test materials. Initiate test agent injections (in the nape of the neck) based on individual body weight. Treatment is Q4D on Days 1, 5, and 9. Prepare test agent fresh on each injection day and administer based on individual body weight for that day.
Days 5 and 9: Prepare test agent fresh on each injection day and administer based on individual body weight for that day.
Day 11: End and evaluate experiment. Record body weights (Weigh Day 2). Measure tumor in OMU's (Ocular Micrometer Unit--10 OMU's=1 mm) and record.
The parameter measured is mean tumor weight change (delta) based on length and width measurements in millimeters. Mean animal body weights are computed for Day 1 and Day 11, compute T/C for all test groups with>65% survivors on Day 11. An excessive body weight change difference (test minus control) may also be used in evaluating toxicity. The dimensions are measured and recorded in Ocular Micrometer Units (OMU). A computer is utilized for the following:
(1) Converts OMU's to millimeters (mm).
(2) Calculates tumor weights (mgs) from tumor dimensions (mm×mm) following the formula for the volume of a prolate ellipsoid: [formula] (3) Calculates the change (delta) in mean tumor weight for each group of mice:
Change in Mean Tumor Weight=Mean Tumor WeightFINAL -Mean Tumor WeightINITIAL.
(4) Calculates the change (delta) in mean tumor weight for test (T) and control (C) groups.
(5) Calculates T/C% for all test groups with>65% survivors on Final Evaluation Day: [formula]

[4] = system: tumors; settings: in words; cited from earlier work
[5] = system: microtubules; settings: in vitro / cells, in words; cited from earlier work
[6] = system: microtubule assembly; assay: In vitro microtubule assembly kinetics; format: biochemical; settings: rank order
Experimental: (A) In vitro Microtubule Assembly Kinetics Studies
The microtubule assembly study was conducted using both 2' and 7-derivatives according to the in vitro procedures disclosed, for example, in Mellado et al., Biochemical and Biophysical Research Communications, Vol. 124, No. 2 (1984), pp. 329-336; Magri et al., J. Org. Chem., 51, 797-802 (1986); and Parness et al., Biochemical and Biophysical Research Communications, Vol. 105, No. 3, pp. 1082-1091 (1982).

CC(=O)O[C@H]1C(=O)[C@@]2(C)[C@H]([C@H](OC(=O)c3ccccc3)[C@]3(O)C[C@H](OC(=O)[C@H](O)[C@@H](NC(=O)c4ccccc4)c4ccccc4)C(C)=C1C3(C)C)[C@]1(OC(C)=O)CO[C@@H]1C[C@@H]2O [Taxol]
Order of effectiveness in B-16 melanoma cell proliferation study [1]: taxol>2'-(N,N-dimethylglycyl)taxol>2'-(N,N-diethylaminopropionyl)taxol>7-(N,N-dimethylglycyl)taxol | Water solubility [2]: only very slightly soluble in water | ANML BODY WT DIFF (test minus control) ([3]; Table 1, 4.45 mg/kg): .5 | TEST BODY WT CHG ([3]; Table 1, 4.45 mg/kg): -1.2 | # OF ANMLS ALIVE CALC/TOTAL ([3]; Table 1, 4.45 mg/kg): 5/5 | Average tumor WEIGHT CHANGE (DELTA) ([3]; Table 1, 4.45 mg/kg): -.79 MGS | Average tumor weight, FINAL ([3]; Table 1, 4.45 mg/kg): .00 MGS | ANML BODY WT DIFF (test minus control) ([3]; Table 1, 6.67 mg/kg): .2 | TEST BODY WT CHG ([3]; Table 1, 6.67 mg/kg): -1.5 | # OF ANMLS ALIVE CALC/TOTAL ([3]; Table 1, 6.67 mg/kg): 5/5 | Average tumor WEIGHT CHANGE (DELTA) ([3]; Table 1, 6.67 mg/kg): -.74 MGS | Average tumor weight, FINAL ([3]; Table 1, 6.67 mg/kg): .00 MGS | % T/C ([3]; Table 1, 10.00 mg/kg): -84% | ANML BODY WT DIFF (test minus control) ([3]; Table 1, 10.00 mg/kg): -.3 | TEST BODY WT CHG ([3]; Table 1, 10.00 mg/kg): -2.0 | # OF ANMLS ALIVE CALC/TOTAL ([3]; Table 1, 10.00 mg/kg): 6/6 | Average tumor WEIGHT CHANGE (DELTA) ([3]; Table 1, 10.00 mg/kg): -.49 MGS | Average tumor weight, FINAL ([3]; Table 1, 10.00 mg/kg): .09 MGS | ANML BODY WT DIFF (test minus control) ([3]; Table 1, 15.00 mg/kg): -2.5 | TEST BODY WT CHG ([3]; Table 1, 15.00 mg/kg): -4.2 | # OF ANMLS ALIVE CALC/TOTAL ([3]; Table 1, 15.00 mg/kg): 6/6 | Average tumor WEIGHT CHANGE (DELTA) ([3]; Table 1, 15.00 mg/kg): -.81 MGS | Average tumor weight, FINAL ([3]; Table 1, 15.00 mg/kg): .00 MGS | % T/C ([3]; Table 1, 22.40 mg/kg): TOX | ANML BODY WT DIFF (test minus control) ([3]; Table 1, 22.40 mg/kg): -.9 | TEST BODY WT CHG ([3]; Table 1, 22.40 mg/kg): -2.6 | # OF ANMLS ALIVE CALC/TOTAL ([3]; Table 1, 22.40 mg/kg): 3/6 | Average tumor weight, FINAL ([3]; Table 1, 22.40 mg/kg): .00 MGS | % T/C ([3]; Table 2, 1.88 mg/kg): 5% | ANML BODY WT DIFF (test minus control) ([3]; Table 2, 1.88 mg/kg): 3.0 | TEST BODY WT CHG ([3]; Table 2, 1.88 mg/kg): -1.0 | # OF ANMLS ALIVE CALC/TOTAL ([3]; Table 2, 1.88 mg/kg): 4/5 | Average tumor WEIGHT CHANGE (DELTA) ([3]; Table 2, 1.88 mg/kg): .71 MGS | Average tumor weight, FINAL ([3]; Table 2, 1.88 mg/kg): 1.51 MGS | ANML BODY WT DIFF (test minus control) ([3]; Table 2, 3.75 mg/kg): 1.1 | TEST BODY WT CHG ([3]; Table 2, 3.75 mg/kg): -2.9 | # OF ANMLS ALIVE CALC/TOTAL ([3]; Table 2, 3.75 mg/kg): 4/5 | Average tumor WEIGHT CHANGE (DELTA) ([3]; Table 2, 3.75 mg/kg): -.71 MGS | Average tumor weight, FINAL ([3]; Table 2, 3.75 mg/kg): .00 MGS | % T/C ([3]; Table 2, 7.50 mg/kg): TOX | ANML BODY WT DIFF (test minus control) ([3]; Table 2, 7.50 mg/kg): 2.3 | TEST BODY WT CHG ([3]; Table 2, 7.50 mg/kg): -1.7 | # OF ANMLS ALIVE CALC/TOTAL ([3]; Table 2, 7.50 mg/kg): 3/5 | Average tumor weight, FINAL ([3]; Table 2, 7.50 mg/kg): .00 MGS | % T/C ([3]; Table 2, 15.00 mg/kg): TOX | # OF ANMLS ALIVE CALC/TOTAL ([3]; Table 2, 15.00 mg/kg): 0/5 | Antitumor activity [4]: potent antitumor activity against a wide variety of tumors | Effect on microtubules [5]: promotes the assembly of microtubules but inhibits their disassembly | Ability to assemble microtubules (order) [6]: taxol >7-(N,N-dimethylglycyl)taxol(11)>2'(N,N-diethylaminopropionyl)taxol(8)>2'(N,N-dimethylglycyl)taxol(2)
